According to PMC6321601 (Molecules, 2018):

What was measured:
Bax = assay: Western blot assay, Bax; type: cell-based, human; details: HepG-2, 24 h
Procedure: (§1) HepG-2 cells were treated with compound 10b for 24 h, and the cell lysates were collected. Then, the total protein was separated by SDS-PAGE and transferred to PVDF membranes. The membranes were incubated with primary antibodies (1:1000) at 4 °C overnight. After being washed with PBST (PBS + 0.5% Tween 20) 5 times, the membranes were incubated with HRP-conjugated secondary antibodies (1:5000 dilution) for 2 h at room temperature. The membranes were then washed with PBST 5 times and the protein blots were detected by ECL chemiluminescence.

Bcl-2 = assay: Western blot assay, Bcl-2; type: cell-based, human; details: HepG-2, 24 h
Procedure: as §1

STAT3 = assay: Western blot assay, STAT3; type: cell-based, human; details: HepG-2, 24 h, different concentrations
Procedure: as §1

P-STAT3 = assay: Western blot assay, P-STAT3; type: cell-based, human; details: HepG-2, 24 h, dose-dependent
Procedure: as §1

[1] = system: HepG-2 human hepatocellular carcinoma cells; assay: MTT assay, proliferation of HepG-2 cells; type: cell-based; details: mean of three independent experiments
Procedure: (§2) HepG-2 human hepatocellular carcinoma cells and L-O2 human normal liver cells were maintained in DMEM culture medium supplemented with 10% FBS at 37 °C under a humidified atmosphere with 5% CO2.
(§3) HepG-2 and L-O2 cells in logarithmic growth phase were seeded into a 96-well plate at 5 × 10^3/well/200 µL. After 12 h, compounds at different concentrations were added and incubated for 72 h at 37 °C, 5% CO2. Then, 20 µL MTT (5 mg/mL) was added into each well and incubated for 4 h. The supernatant was discarded, and the precipitate was dissolved with DMSO. The absorbance of the optical density (OD) at 570 nm was detected using a microplate reader and the IC50 was calculated with GraphPad Prism 5.

caspase 3 = assay: Western blot assay, caspase 3; type: cell-based, human; details: HepG-2, 24 h
Procedure: as §1

HepG-2 cells = assay: Cell apoptosis assay, Annexin-V/PI flow cytometry; type: cell-based, human; details: HepG-2, 48 h, 0, 1 and 2 µM
Procedure: HepG-2 cells were seeded into a 24-well plate with 5 × 10^4/well/1 mL. After 12 h, cells were treated with compound 10b at different concentrations for 48 h. The cells were collected, washed with cold PBS, and stained with Annexin-V/PI according to the manufacturer’s instructions. Then, the cells were analyzed with flow cytometry.

Bim = assay: Western blot assay, Bim; type: cell-based, human; details: HepG-2, 24 h
Procedure: as §1

[2] = system: L-O2 human normal liver cells; assay: MTT assay, toxicity against L-O2 normal cells; type: cell-based; details: 72 h incubation, mean of three independent experiments
Procedure: as §2, §3

Balb/C mice = assay: In vivo acute toxicity assay; details: intravenous injection; for percentage of death: three mice
Procedure: To evaluate the toxicity of compound 10b, an acute toxicity assay was performed using Balb/C mice.
Five-week-old Balb/C mice were purchased from the Chinese Academy of Sciences and maintained under specific pathogen free (SPF) conditions. […] The control group mice were treated with vehicle buffer intravenously. […] The compound 10b group mice were treated with compound 10b at doses of 2 mg/kg, 5 mg/kg, 10 mg/kg, 20 mg/kg, and 50 mg/kg respectively (three mice each dose). The clinical symptoms, deaths, and body weight were observed and recorded.

[3] = Homo sapiens, HepG2, 72 h incubation

CC(=O)OC(C)(C)/C=C/C(=O)[C@](C)(O)C1[C@H](OC(=O)CCC(=O)OCCCOc2no[n+]([O-])c2S(=O)(=O)c2ccccc2)C[C@@]2(C)C3CC=C4C(CC(O)C(=O)C4(C)C)[C@]3(C)C(=O)C[C@]12C (stereo partly drawn) [Compound 10b, 4-(3-((4-(((9R,13R,14S,16R)-17-((R,E)-6-Acetoxy-2-hydroxy-6-methyl-3-oxohept-4-en-2-yl)-2-hydroxy-4,4,9,13,14-pentamethyl-3,11-dioxo-2,3,4,7,8,9,10,11,12,13,14,15,16,17-tetradecahydro-1H-cyclopenta[a]phenanthren-16-yl)oxy)-4-oxobutanoyl)oxy)propoxy)-3-(phenylsulfonyl)-1,2,5-oxadiazole 2-oxide]
expression of Bax (Bax): strongly increased | expression of Bcl-2 (Bcl-2): substantially diminished | total expression of STAT3 (STAT3): remained little changed | level of P-STAT3 (P-STAT3): clearly inhibited | IC50 [1, 3]: 630 ± 290 nM | level of caspase 3 (caspase 3): decreased | induction of cell apoptosis (HepG-2 cells): significantly induced cell apoptosis in a dose-dependent manner | expression of Bim (Bim): strongly increased | IC50 ([2]; Homo sapiens): 2970 ± 230 nM | percentage of death (Balb/C mice; 2 mg/kg): 0/3 | percentage of death (Balb/C mice; 5 mg/kg): 0/3 | percentage of death (Balb/C mice; 10 mg/kg): 0/3 | percentage of death (Balb/C mice; 20 mg/kg): 0/3 | percentage of death (Balb/C mice; 50 mg/kg): 1/3 | body weight change (Balb/C mice; different doses (2-50 mg/kg), compared to the vehicle group): did not change

CC(=O)OC(C)(C)/C=C/C(=O)[C@](C)(O)C1[C@H](OC(=O)CCC(=O)OCCCCCCCCCCOc2no[n+]([O-])c2S(=O)(=O)c2ccccc2)C[C@@]2(C)C3CC=C4C(CC(O)C(=O)C4(C)C)[C@]3(C)C(=O)C[C@]12C (stereo partly drawn) [Compound 10i, 4-((10-((4-(((9R,13R,14S,16R)-17-((R,E)-6-Acetoxy-2-hydroxy-6-methyl-3-oxohept-4-en-2-yl)-2-hydroxy-4,4,9,13,14-pentamethyl-3,11-dioxo-2,3,4,7,8,9,10,11,12,13,14,15,16,17-tetradecahydro-1H-cyclopenta[a]phenanthren-16-yl)oxy)-4-oxobutanoyl)oxy)decyl)oxy)-3-(phenylsulfonyl)-1,2,5-oxadiazole 2-oxide]
IC50 [1, 3]: 6920 ± 750 nM | IC50 ([2]; Homo sapiens): 3270 ± 430 nM

CC(=O)OC(C)(C)/C=C/C(=O)[C@](C)(O)C1[C@H](OC(=O)CCC(=O)OCCCCCCCCCCCOc2no[n+]([O-])c2S(=O)(=O)c2ccccc2)C[C@@]2(C)C3CC=C4C(CC(O)C(=O)C4(C)C)[C@]3(C)C(=O)C[C@]12C (stereo partly drawn) [Compound 10j, 4-((11-((4-(((9R,13R,14S,16R)-17-((R,E)-6-Acetoxy-2-hydroxy-6-methyl-3-oxohept-4-en-2-yl)-2-hydroxy-4,4,9,13,14-pentamethyl-3,11-dioxo-2,3,4,7,8,9,10,11,12,13,14,15,16,17-tetradecahydro-1H-cyclopenta[a]phenanthren-16-yl)oxy)-4-oxobutanoyl)oxy)undecyl)oxy)-3-(phenylsulfonyl)-1,2,5-oxadiazole 2-oxide]
IC50 [1, 3]: 10300 ± 1110 nM | IC50 ([2]; Homo sapiens): 6690 ± 3950 nM

CC(=O)OC(C)(C)/C=C/C(=O)[C@](C)(O)C1[C@H](OC(=O)CCC(=O)OCCCCCCCCCCCCOc2no[n+]([O-])c2S(=O)(=O)c2ccccc2)C[C@@]2(C)C3CC=C4C(CC(O)C(=O)C4(C)C)[C@]3(C)C(=O)C[C@]12C (stereo partly drawn) [Compound 10k, 4-((12-((4-(((9R,13R,14S,16R)-17-((R,E)-6-Acetoxy-2-hydroxy-6-methyl-3-oxohept-4-en-2-yl)-2-hydroxy-4,4,9,13,14-pentamethyl-3,11-dioxo-2,3,4,7,8,9,10,11,12,13,14,15,16,17-tetradecahydro-1H-cyclopenta[a]phenanthren-16-yl)oxy)-4-oxobutanoyl)oxy)dodecyl)oxy)-3-(phenylsulfonyl)-1,2,5-oxadiazole 2-oxide]
IC50 [1, 3]: > 20000 nM | IC50 ([2]; Homo sapiens): > 20000 nM

CC(=O)OC(C)(C)/C=C/C(=O)[C@](C)(O)C1[C@H](OC(=O)CCC(=O)OC/C=C/COc2no[n+]([O-])c2S(=O)(=O)c2ccccc2)C[C@@]2(C)C3CC=C4C(CC(O)C(=O)C4(C)C)[C@]3(C)C(=O)C[C@]12C (stereo partly drawn) [Compound 10l, 4-(((E)-4-((4-(((9R,13R,14S,16R)-17-((R,E)-6-Acetoxy-2-hydroxy-6-methyl-3-oxohept-4-en-2-yl)-2-hydroxy-4,4,9,13,14-pentamethyl-3,11-dioxo-2,3,4,7,8,9,10,11,12,13,14,15,16,17-tetradecahydro-1H-cyclopenta[a]phenanthren-16-yl)oxy)-4-oxobutanoyl)oxy)but-2-en-1-yl)oxy)-3-(phenylsulfonyl)-1,2,5-oxadiazole 2-oxide]
IC50 [1, 3]: 1010 ± 400 nM | IC50 ([2]; Homo sapiens): 2720 ± 380 nM

CC(=O)OC(C)(C)/C=C/C(=O)[C@](C)(O)C1[C@H](OC(=O)CCC(=O)OCC#CCOc2no[n+]([O-])c2S(=O)(=O)c2ccccc2)C[C@@]2(C)C3CC=C4C(CC(O)C(=O)C4(C)C)[C@]3(C)C(=O)C[C@]12C (stereo partly drawn) [Compound 10m, 4-((4-((4-(((9R,13R,14S,16R)-17-((R,E)-6-Acetoxy-2-hydroxy-6-methyl-3-oxohept-4-en-2-yl)-2-hydroxy-4,4,9,13,14-pentamethyl-3,11-dioxo-2,3,4,7,8,9,10,11,12,13,14,15,16,17-tetradecahydro-1H-cyclopenta[a]phenanthren-16-yl)oxy)-4-oxobutanoyl)oxy)but-2-yn-1-yl)oxy)-3-(phenylsulfonyl)-1,2,5-oxadiazole 2-oxide]
IC50 [1, 3]: 1350 ± 100 nM | IC50 ([2]; Homo sapiens): 2940 ± 90 nM

CC(=O)OC(C)(C)/C=C/C(=O)[C@](C)(O)C1[C@H](OC(=O)CCC(=O)OCC(C)(C)COc2no[n+]([O-])c2S(=O)(=O)c2ccccc2)C[C@@]2(C)C3CC=C4C(CC(O)C(=O)C4(C)C)[C@]3(C)C(=O)C[C@]12C (stereo partly drawn) [Compound 10n, 4-(3-((4-(((9R,13R,14S,16R)-17-((R,E)-6-Acetoxy-2-hydroxy-6-methyl-3-oxohept-4-en-2-yl)-2-hydroxy-4,4,9,13,14-pentamethyl-3,11-dioxo-2,3,4,7,8,9,10,11,12,13,14,15,16,17-tetradecahydro-1H-cyclopenta[a]phenanthren-16-yl)oxy)-4-oxobutanoyl)oxy)-2,2-dimethylpropoxy)-3-(phenylsulfonyl)-1,2,5-oxadiazole 2-oxide]
IC50 [1, 3]: 1110 ± 220 nM | IC50 ([2]; Homo sapiens): 3310 ± 180 nM

CC(=O)OC(C)(C)/C=C/C(=O)[C@](C)(O)C1[C@H](OC(=O)CCC(=O)OCc2ccc(COc3no[n+]([O-])c3S(=O)(=O)c3ccccc3)cc2)C[C@@]2(C)C3CC=C4C(CC(O)C(=O)C4(C)C)[C@]3(C)C(=O)C[C@]12C (stereo partly drawn) [Compound 10o, 4-((4-(((4-(((9R,13R,14S,16R)-17-((R,E)-6-Acetoxy-2-hydroxy-6-methyl-3-oxohept-4-en-2-yl)-2-hydroxy-4,4,9,13,14-pentamethyl-3,11-dioxo-2,3,4,7,8,9,10,11,12,13,14,15,16,17-tetradecahydro-1H-cyclopenta[a]phenanthren-16-yl)oxy)-4-oxobutanoyl)oxy)methyl)benzyl)oxy)-3-(phenylsulfonyl)-1,2,5-oxadiazole 2-oxide]
IC50 [1, 3]: 1020 ± 280 nM | IC50 ([2]; Homo sapiens): 3000 ± 260 nM

CC(=O)OC(C)(C)/C=C/C(=O)[C@](C)(O)C1[C@H](OC(=O)CCC(=O)O)C[C@@]2(C)C3CC=C4C(C[C@H](O)C(=O)C4(C)C)[C@]3(C)C(=O)C[C@]12C (stereo partly drawn) [Compound 11, 4-(((2S,9R,13R,14S,16R)-17-((R,E)-6-Acetoxy-2-hydroxy-6-methyl-3-oxohept-4-en-2-yl)-2-hydroxy-4,4,9,13,14-pentamethyl-3,11-dioxo-2,3,4,7,8,9,10,11,12,13,14,15,16,17-tetradecahydro-1H-cyclopenta[a]phenanthren-16-yl)oxy)-4-oxobutanoic acid]
IC50 [1, 3]: > 20000 nM | IC50 ([2]; Homo sapiens): > 20000 nM

cucurbitacin B [Compound 1, reference compound]
IC50 ([1]; 72 h incubation): 60 ± 20 nM | IC50 [2]: 19 ± 3 nM
